# Measurements reported in a melting point compilation (Tetko et al.; mined from patent text by program, amines drawn as free bases though some values may be those of a salt).
row,SMILES,melting point
1,Cc1ccc(S(=O)(=O)NC(=O)OCCc2ccc(-n3c(C4CCCCC4)nc4c(C)nc(C)cc43)cc2)cc1,168 °C
2,CCCCCOc1ccc(-c2ccc(-c3nc(N)nc(N)n3)cc2)cc1,246 to 249 °C
3,CCCCCCCCCCCc1ccc(-c2ccc(OCC(C)CC)nn2)cc1 (centres undefined),78 °C
4,CSc1nc2cc(Cl)ccc2n1C1CCN(CCCn2c(=O)[nH]c3ccccc32)CC1,196 °C
5,C=CCOC(=O)C1=C2[C@@H](OC)CCC[C@@H]2[C@@H]2[C@@H]([C@H](O)C(F)(F)F)C(=O)N12,78 to 85 °C
6,CC12CCC3(CC1CCC1C2CCC2(C)C(N)C(O)CC12)OCCO3 (centres undefined),254 to 258 °C
7,CCOc1nsnc1O,104 to 106 °C
8,CN(C)C=C1C(=O)N(c2ccccc2)C(=O)N1C,131 to 133 °C
9,Cc1ccnc(F)c1N,63 to 64 °C
10,O=c1[nH]c(=O)n(C2CC(F)C(CO)O2)cc1Cl (centres undefined),183 to 184 °C
11,CC(C)c1cccc(C(C)C)c1NC(=O)CCN1CCN(CCCSc2nc3ccccc3o2)CC1,93 to 95 °C
12,CCC(=O)N[C@@H](C)C(=O)N1CCC[C@H]1C(=O)NC(C)C,173 to 175 °C
13,CC(C)(C)OC(=O)N1CCc2cc(OCc3ccccc3)c(OCc3ccccc3)cc2C1Cc1ccc([N+](=O)[O-])cc1 (centres undefined),150 to 152 °C
14,CCCCCCCCCCCCCCCCNc1ccc(C(=O)OCC(COC(C)=O)OC(C)=O)cc1 (centres undefined),68 °C
15,COc1ccc(-c2nc(-c3ncc4c(n3)CCCC4)ccc2C)nc1,157 to 158 °C
16,CC(=O)C1=C(O)C(=C(C)Nc2cccc(NS(C)(=O)=O)c2)C(=O)OC1=O,196 °C
17,C=C1N(C)C(=O)OC12CCN(CCCN1c3ccccc3Sc3ccc(C(F)(F)F)cc31)CC2,116 to 118 °C
18,CCCCCCCCCCCCC#CC#CCn1c2ccccc2c2ccccc21,53 to 58 °C
19,CC(CCCC(C)C1CCC2C3CC=C4C(C)(C)C(O)CCC4(C)C3CCC12C)CO[Si](C)(C)C(C)(C)C (centres undefined),88.5 °C
20,Fc1cccc(COc2ccc(Nc3ncnc4cc(C#Cc5nccs5)sc34)cc2Cl)c1,235 °C
21,OC1CSC(Oc2ccc(-c3cccnc3F)nc2)C(O)C1O (centres undefined),181 °C
22,CC(C)(C)[Si](C)(C)OCCN(CCON1C(=O)c2ccccc2C1=O)CCON1C(=O)c2ccccc2C1=O,56 to 58 °C
23,COc1nc(C)cnc1NS(=O)(=O)c1cccnc1-c1ccc(C)cc1,184 to 185 °C

row,SMILES,melting point
1,COC(=O)CCCCCCCCCCCCCCCCCCCS(=O)(=O)c1ccc(C)cc1,72.5 to 73.5 °C
2,O=C1NCCC[C@@H]1NS(=O)(=O)c1c(F)cccc1F,152 to 153 °C
3,Nc1ccc(C(O)C(COc2ccccc2)N2CCC(Cc3ccccc3)CC2)cc1 (centres undefined),146 to 147 °C
4,CC1(C)C2CCC1(CN1CN(CC34CCC(CC3)C4(C)C)CN(CC34CCC(CC3)C4(C)C)C1)CC2,175 to 180 °C
5,CO[C@]1(c2cnc(SC)s2)CCO[C@@H]1C (racemic),51 to 52 °C
6,Cc1cc2c(O)n(CCc3ccc(C(=O)N[C@@H](CCC(=O)O)C(=O)O)cc3)cnc-2n1,291 °C
7,CC(=O)OC1CCC2(C)C(CCC3=C4C(=O)CC(C(C)CCCC(C)(C)O)C4(C)CCC32)C1 (centres undefined),151 to 152 °C
8,COc1ccc(C2(CCN3CCC(C(=O)c4nc5ccccc5[nH]4)CC3)CCN(C(=O)c3cc(OC)c(OC)c(OC)c3)C2)cc1OC (centres undefined),113 to 116 °C
9,CCCN(CCC)C1CCc2c(ccc3[nH]cc(C(C)=O)c23)C1 (centres undefined),196 to 197 °C
10,Cc1c(C)c(C)c2c(c1C)CCCC2,81.5 to 82 °C
11,O=C[C@H]1CC[C@H](SCc2ccc(Cl)cc2)CC1,44 to 46 °C
12,C=CCn1c(=O)n(CCCN2CCC3(CC2)C(=O)NCN3c2ccccc2)c2ccccc21,198 °C
13,CCCCCCCCCC(=O)OC(=C(OC(=O)CCCCCCCCC)c1ccccn1)c1ccccn1,89 to 90 °C
14,C=CCOCC(CC)(COCC=C)C(NC(=O)c1ccc(Cl)cc1)NC(=N[N+](=O)[O-])Nc1cccnc1 (centres undefined),175 to 180 °C
15,Brc1ccc(CCCCn2ccnc2)cc1,40 °C
16,Nc1ccc(-c2ncccn2)cc1,236 to 238 °C
17,C=C(C)CN(c1ncnc2c1ncn2C1OC(CO)C(O)C1O)C1CCCCC1 (centres undefined),110 to 112 °C
18,Nc1c(F)c(N2CCCC2)c(F)c2c1c(=O)c(C(=O)O)cn2C1COC1,250 to 253 °C
19,O=C(Nc1cccc(C(F)(F)F)c1)C(=O)N1CCC(Cc2ccc(F)cc2)CC1,113 to 115 °C
20,O=C(Nc1ccccn1)c1sc(Nc2ccccc2)c2c1CCc1cnoc1-2,196 to 197 °C
21,OCCc1ccc(OCc2coc(/C=C/c3ccccc3)n2)cc1,123 to 124 °C
22,CC(C)Sc1cc2c3cc(SC(C)C)c(SC(C)C)cc3c3cc(SC(C)C)c(SC(C)C)cc3c2cc1SC(C)C,165 to 168 °C
23,Cc1oc2c(-c3ccc(F)cc3)c(-c3ccc(S(C)(=O)=O)cc3)nn2c1-c1ccc(Cl)s1,222 to 223 °C

# Now from value to molecule:
row,melting point,SMILES
1,116 to 118 °C,CC(C)(C)NNC(=O)c1ccccc1CO
2,206 to 208 °C,Cc1cc2nc(NC(=O)CO)sc2cc1C
3,162 to 163 °C,CCCc1nc2c(N)nc3cccnc3c2n1CCCCS(=O)(=O)N(C)C
4,136 to 138 °C,Cc1ccc(CC2(O)CCN(CC(=O)Nc3ccc(O[Si](C)(C)C(C)(C)C)cc3)CC2)cc1
5,117 to 120 °C,CCNC(=O)c1ccc2ncc(C3CCN(C)CC3)c-2[nH]1
6,46 to 48 °C,COc1cc2c(cc1O)CCCN(Cc1cc(OC)c(OC)c(OC)c1)C2
7,83 to 85 °C,N#Cc1cc(Br)c(OC(=O)OCCl)c(Br)c1
8,110 °C,CN(Cc1cccc(-c2ccc(CC3SC(=O)NC3=O)cc2)c1)C(=O)c1ccc(O)cc1 (centres undefined)
9,50 °C,CCOC(=O)c1noc(-c2ccc(SC)cc2Cl)c1C(=O)C1CC1
10,148 to 152 °C,COc1cccc(NCC(=O)Nc2ccc(S(N)(=O)=O)cc2Cl)c1
11,139 to 140 °C,COC(=O)c1c(-c2ccc3ccccc3c2)ccc2ccccc12
12,87 to 90 °C,COC(OC)/C(=C/c1ccc(Cl)cc1Cl)c1ccc(Cl)cc1
13,136 to 137 °C,Cc1nc(N2CCN(CC3CCC3)C2=O)sc1C(=O)NCc1cccnc1
14,150 to 152 °C,COC(=O)Nc1nc2ccc(S(=O)c3ccccc3)cn2c1Br (centres undefined)
15,76 to 78 °C,Cc1cc(C)c2c(c1)C=C(/C=C/C=O)CO2
16,208 to 210 °C,O=C(O)c1scc(Cl)c1C(=O)Nc1ccccc1
17,178 to 185 °C,N#Cc1ccc(-c2cn(-c3ccc(Br)cc3)cn2)cc1
18,201 °C,ClCCCOc1ccc(-c2ccc(OCCCCl)cc2)cc1
19,139 °C,CCC(=O)C1=C(O)CC(c2cc3c(cc2[N+](=O)[O-])OCO3)CC1=O (centres undefined)
20,147 to 148 °C,N#CCCNC(=O)c1cccc(-c2ccc3c(c2)N(c2ccc(Cl)cc2Cl)CCO3)c1
21,123 to 124 °C,COC(=O)COc1cc(C(C)=O)c(O)c2ccccc12
22,163 to 164 °C,Cc1nn(-c2cc(OC(C)C)c(Cl)cc2Cl)c(=O)[nH]c1=O
23,83 °C,COc1cc(-c2nc3ccccc3n2Cc2cccc(Cl)c2)cc(OC)c1OC
24,231 to 232 °C,COc1ccc(CS(=O)(=O)c2cc3cc(Br)ccc3oc2=O)cc1
25,145 to 147 °C,COc1cc2c(c3c1OC(C)(C)C3)C(c1cccc(N3CCNS3)c1)=NC(C)(C)C2
26,77 to 81 °C,N#Cc1ccc2c(c1)CCC=C2c1ccns1
27,127 to 129 °C,COc1cc2c(cc1OC)CN(CCCCNC(=O)c1cc(Br)cc(OC)c1OCCF)CC2

row,melting point,SMILES
1,124 to 127 °C,CN(Cc1ccccc1)S(=O)(=O)CC(N)=O
2,72 °C,CC1(C)C(C#CC(=O)OCC2CC2)C1C(=O)OC(C#N)c1cccc(Oc2ccccc2)c1 (centres undefined)
3,234 to 236 °C,CCOC(=O)c1[nH]c2cccnc2c1-c1ccc([N+](=O)[O-])cc1
4,168 to 170 °C,NC(=NC(=O)c1nc(Cl)c(N)nc1N)NCCCCc1ccc(OCC(=O)Nc2ccccc2)cc1
5,138 °C,CC(C)(C)OC(=O)CCc1ccnc(-c2nc(=O)c3ccc(F)cc3s2)c1
6,158 °C,CCCCc1cc(Cc2ccc(C(=O)O)cc2)c2ccccc2n1
7,210 to 212 °C,CN1C(=O)c2cscc2N(C(=O)Cc2ccccc2)c2ccccc21
8,148 to 151 °C,CS(=O)c1ccc2c(c1)C=C(C(=O)O)C(C(F)(F)F)O2 (centres undefined)
9,112 °C,CCOCC1=C(C(=O)OCC)C(c2ccccc2)C(C(=O)OCC)=C(C)N1 (centres undefined)
10,129 to 130 °C,CCOC(=O)c1conc1-c1ccc(Cl)c(Cl)c1
11,147 to 149 °C,CCOC(=O)CNC(=S)Cc1cnc(C)c(O)c1CO
12,138 to 139 °C,N#CCOc1ccc2cc(CNC(=O)c3cc4ccccc4o3)ccc2c1
13,84 °C,OCc1cc(C(F)(F)F)ccc1Sc1ccccc1
14,49 to 51 °C,CCOC(=O)NC1=C(C(=O)OCC)CCC1
15,87.8 to 89.4 °C,CCCNC(=O)N(Cc1ccc(C)cc1)NC(=O)OC(C)(C)C
16,314 to 316 °C,O=C(CCCOc1ccc2nc3[nH]c(=O)[nH]c3cc2c1)NC1CCCCCC1
17,109 °C,COc1ccc(C(=O)c2cc(F)ccc2F)c(O)c1
18,130 to 131 °C,CCOC(=O)C(C(=O)c1ccc(OC)cc1)N(N)c1ccccn1 (centres undefined)
19,78 to 80 °C,COC(Cc1cc(C)c(OCCc2nc(C(C)(C)C)oc2C)c(C)c1)C(=O)O (centres undefined)
20,238 to 241 °C,O=[N+]([O-])c1ccc(Oc2cccc3c(Oc4ccc([N+](=O)[O-])c(O)c4)cccc23)cc1O
21,137 °C,Clc1cnc2cc(Cl)c(Cl)cc2n1
22,86 to 89 °C,COc1cccc2c(Cl)c(CCCCl)cnc12
23,57 to 58 °C,Cc1cc(C(=O)C2=NOC(c3cc(Cl)cc(Cl)c3)(C(F)(F)F)C2)ccc1S(=O)(=O)NCc1ccccn1 (centres undefined)
24,99.5 to 100 °C,COCCCNc1nc2cc(Cl)c(Cl)cc2nc1-c1ccccn1
25,176 to 178 °C,CCc1c(C)[nH]c(=O)n(-c2cc(C(=O)OC(C)C)c(Cl)cc2F)c1=O
26,> 360 °C,O=C1C(Br)=CC2(C=C1Br)CCNC1=C2C2=NCCc3c[nH]c(c32)C1=O
